Numbered stars: 1 amine (or outer) side, 2 acyl side, 3 side chain; on linkers, the order of the positions; unused ones are H or OH. Square brackets hold non-standard residues; d marks the D form. Peptide text beside a SMILES is read from it. * marks the point of attachment. NMeAla(cPr) = CN[C@@H](CC1CC1)C(=O)O; Isobutyloxycarbonyl = CC(C)COC(=O)*; X1 = O=C(C(=O)[*:2])C(CC1CC1)N[*:1]; Ala(cPr) = N[C@@H](CC1CC1)C(=O)O; Chg = N[C@H](C(=O)O)C1CCCCC1; Phg = N[C@H](C(=O)O)c1ccccc1 A value given as a limit tells only on which side of the number the result lay.

The text below walks through data of ChEMBL document CHEMBL1146050, “Depeptidization efforts on P3-P2' alpha-ketoamide inhibitors of HCV NS3-4A serine protease: effect on HCV replicon activity” (Bioorg Med Chem Lett, 2006).

One assay relates to Hepatitis C virus. The assay is described as follows: Inhibitory activity against HCV replicon. Format: functional, Hepacivirus hominis.
Another assay has as its target NS3 (Hepatitis C virus, UniProt A3EZJ3). The experiment in a line: Inhibitory activity against HCV NS3 protease. Further details: species or system Hepacivirus hominis. The note with it: read-out: Ki app.

Sequence of NS3 (A3EZJ3 whole entry): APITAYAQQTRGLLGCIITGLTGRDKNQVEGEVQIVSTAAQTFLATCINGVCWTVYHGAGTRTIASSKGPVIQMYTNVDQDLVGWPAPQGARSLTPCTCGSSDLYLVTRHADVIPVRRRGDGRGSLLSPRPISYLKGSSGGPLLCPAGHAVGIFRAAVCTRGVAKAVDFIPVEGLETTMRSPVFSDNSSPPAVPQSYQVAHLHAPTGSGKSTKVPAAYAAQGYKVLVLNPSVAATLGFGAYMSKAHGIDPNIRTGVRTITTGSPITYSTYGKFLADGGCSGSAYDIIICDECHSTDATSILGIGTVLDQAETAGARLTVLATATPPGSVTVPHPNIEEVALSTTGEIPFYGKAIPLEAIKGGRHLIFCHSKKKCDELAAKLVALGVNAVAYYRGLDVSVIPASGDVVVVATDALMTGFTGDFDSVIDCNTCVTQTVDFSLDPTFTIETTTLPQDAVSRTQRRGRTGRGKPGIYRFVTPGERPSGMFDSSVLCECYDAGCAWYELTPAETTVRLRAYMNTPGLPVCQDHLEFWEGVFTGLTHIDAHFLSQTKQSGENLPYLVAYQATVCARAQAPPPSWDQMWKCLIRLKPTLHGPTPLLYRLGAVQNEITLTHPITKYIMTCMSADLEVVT

Regarding `CC(C)COC(=O)N[C@@H](C1CCCCC1)[C@@H](O)CC(=O)N[C@@H](CC1CC1)C(=O)NC(CC1CC1)C(=O)C(=O)NCC(=O)N[C@H](C(=O)O)c1ccccc1` (stereo partly specified), the 90% effect concentration (IC90) (as a rule, the point of the concentration-response curve where the effect stands at 90%) in the assay with Hepatitis C virus is greater than 5 µM. Also, the Ki at NS3 is 42 µM.
`CC(C)COC(=O)N[C@@H](C1CCCCC1)[C@@H](O)CN(CC1CC1)C(=O)NC(CC1CC1)C(=O)C(=O)NCC(=O)N[C@H](C(=O)O)c1ccccc1` (stereo partly specified) had a 90% effect concentration (IC90) with Hepatitis C virus greater than 5 µM. Besides, the Ki on NS3 was determined as 10 µM.
The corresponding values for `CC(C)COC(=O)N[C@H](C(=O)NN(CC1CC1)C(=O)NC(CC1CC1)C(=O)C(=O)NCC(=O)N[C@H](C(=O)O)c1ccccc1)C1CCCCC1` (stereo partly specified) are greater than 5 µM and 0.23 µM.
The corresponding values for `CC(C)COC(=O)N[C@H](C(=O)CN(CC1CC1)C(=O)NC(CC1CC1)C(=O)C(=O)NCC(=O)N[C@H](C(=O)O)c1ccccc1)C1CCCCC1` (stereo partly specified) are greater than 5 µM and 2.1 µM.
On to `CC(C)COC(=O)N[C@H](C(=O)N[C@@H](CC1CC1)C(=O)NC(CC1CC1)C(=O)C(=O)NCC(=O)N[C@H](C(=O)N(C)C)c1ccccc1)C1CCCCC1` (stereo partly specified) (Isobutyloxycarbonyl-[Chg][Ala(cPr)][X1]G[Phg]-NMe2), for which the IC90 in the assay with Hepatitis C virus was greater than 5 µM. For the same compound, the Ki on NS3 came out at 0.05 µM.
Taken in the same sequence, the figures for `CC(C)COC(=O)N[C@H](C(=O)N[C@@H](CC1CC1)C(=O)NC(CC1CC1)C(=O)C(=O)NCC(=O)N[C@H](C(=O)O)c1ccccc1)C1CCCCC1` (stereo partly specified) (Isobutyloxycarbonyl-[Chg][Ala(cPr)][X1]G[Phg]-OH) were greater than 5 µM and 0.015 µM.
Taken in the same sequence, the figures for `CC(C)COC(=O)N[C@H](C(=O)N(C)[C@@H](CC1CC1)C(=O)NC(CC1CC1)C(=O)C(=O)NCC(=O)N[C@H](C(=O)N(C)C)c1ccccc1)C1CCCCC1` (stereo partly specified) (Isobutyloxycarbonyl-[Chg][NMeAla(cPr)][X1]G[Phg]-NMe2) were 0.95 µM and 0.06 µM.
Compound `CC(C)COC(=O)N[C@H](C(=O)N(C)[C@@H](CC1CC1)C(=O)NC(CC1CC1)C(=O)C(=O)NCC(=O)N[C@H](C(=O)O)c1ccccc1)C1CCCCC1` (stereo partly specified) (Isobutyloxycarbonyl-[Chg][NMeAla(cPr)][X1]G[Phg]-OH) gave a concentration for an effect of 90% (IC90) in the assay on Hepatitis C virus greater than 5 µM. Moreover, on NS3, the Ki is 0.12 µM.
